Assays:
CIRI mice = experiment: Flow cytometry of immune cells isolated from the ischemic brain hemisphere; assay type: in vivo, C57BL/6 mice; conditions: TJ-5 injected at the time of reperfusion
Protocol: After the mice were anesthetized, 0.9% saline was used for transcardial perfusion. The right brain hemispheres were homogenized in a 6-well plate using 2 ml Hank’s balanced salt solution (HBSS, Solarbio) per well. Collagenase IV (1 mg/ml) was added to […]. The brain homogenate was filtered through a 70 μm cell strainer and centrifuged at 300 g for 5 min at 4°C. Then, 2 ml of 30% Percoll (Sigma) were added to resuspend the brain cell precipitate, and the resuspended cells were slowly added to a 15 ml centrifuge tube containing 3 ml of 70% Percoll. The intermediate layer cells were analyzed by flow cytometry after density-gradient centrifugation.
Approximately 5 × 10^5 cells were suspended in 200 μL HBSS, and anti-mouse CD16/CD32 (5 ng/μL) was used to block Fc receptor binding. The cells were stained with allophycocyanin-conjugated CD45 antibody (1 ng/μL), FITC-conjugated CD11b antibody (1 ng/μL), and phycoerythrin-conjugated Ly6G antibody (1 ng/μL) and incubated in the dark at 4°C for 30 min. Finally, the cells were washed with HBSS buffer, resuspended in 200 μL of HBSS, and analyzed using a flow cytometer (BD FACSCalibur).

SH-SY5Y cells = experiment: CCK-8 cell viability assay, SH-SY5Y; assay type: cell-based
Protocol: BV-2 and SH-SY5Y cells were seeded in a 96-well plate at a density of 1 × 10^4 cells/well. Twenty-4 hours later, different concentrations of TJ-5 (0, 1, 5, 10, 20, and 30 μM) were added and co-cultured with cells for 24 h. Cell Counting Kit-8 (CCK8, Sigma, Shanghai, China) was used to measure cell viability. Experiments were conducted according to the manufacturer’s instructions. After incubation at 37°C for 2 h, absorbance was measured at 450 nm using a microplate reader (Synergy 2, BioTek Instruments, United States).

NF-κB p65 = NF-κB p65 nuclear translocation in LPS-stimulated BV-2 cells, immunofluorescence; assay type: cell-based; conditions: 12 h after LPS stimulation
Protocol: BV-2 microglial and SH-SY5Y cells were cultured as previously described ([Zhao et al., 2020]). A lipopolysaccharide (LPS)-stimulated BV-2 cell model was established to mimic severe neuroinflammation induced by multiple inflammatory mediators after reperfusion ([Li et al., 2021]). BV-2 cells were pretreated with different concentrations of TJ-5 for 2 h before LPS (1 μg/ml) stimulation (#L2880, Sigma, United States). […] In addition, ST2825, a recognized MyD88 inhibitor, was used as positive control group.
For BV-2 cells immunofluorescence staining, the cells were fixed with 4% paraformaldehyde for 10 min and permeabilized with 0.5% Triton X-100 for 10 min. After blocking with goat serum, the cells were sequentially incubated with the primary antibody, secondary antibody, and Hoechst in sequence. Images were captured using a confocal microscope. The fluorescence intensity was analyzed using ImageJ software.

`O=C(CCN1CCN(Cc2ccccc2)CC1)Nc1nc(-c2ccccc2)cs1` [TJ-5] was tested, and the “number of brain-infiltrating CD11b+CD45hi myeloid cells” value (CIRI mice) was “reduced the number”, the “proportion of inactive microglia (CD11b+CD45int)” value (CIRI mice) was “increased the proportion” and the neurotoxicity (SH-SY5Y cells; SH-SY5Y cells) was “no neurotoxicity”. The “viability of SH-SY5Y cells” value (SH-SY5Y cells; concentrations below 20 μM, 24 h, CCK-8) was “did not affect the viability” and the “LPS-induced NF-κB p65 nuclear translocation” value (NF-κB p65) was “significantly prevented”.

Reference: article PMC9797592, “TJ-M2010-5, a novel CNS drug candidate, attenuates acute cerebral ischemia-reperfusion injury through the MyD88/NF-κB and ERK pathway” (Frontiers in Pharmacology, 2022)
